According to patent US8722690B2, “Mesoionic pesticides” (E I du Pont de Nemours and Company, priority 2009, dated 2014):

Tests used:
Type in all cases: in vivo
[1] = system: green peach aphid (Myzus persicae); assay: whole plant or invertebrate; details: 144 h, 6 days, radish plant; for mortality at 50 ppm: sprayed at 50 ppm
Text: For evaluating control of green peach aphid (Myzus persicae) through contact and/or systemic means, the test unit consisted of a small open container with a 12-15-day-old radish plant inside. This was pre-infested by placing on a leaf of the test plant 30-40 aphids on a piece of leaf excised from a culture plant (cut-leaf method). The aphids moved onto the test plant as the leaf piece desiccated. After pre-infestation, the soil of the test unit was covered with a layer of sand.
Test compounds were formulated and sprayed at 50 ppm and/or 10 ppm as described for Test A. The applications were replicated three times. After spraying of the formulated test compound, each test unit was allowed to dry for 1 h and then a black, screened cap was placed on top. The test units were held for 6 days in a growth chamber at 19-21° C. and 50-70% relative humidity. Each test unit was then visually assessed for insect mortality.

[2] = system: potato leafhopper (Empoasca fabae); assay: whole plant or invertebrate; details: 144 h, 6 days, Soleil bean plant, very good to excellent levels of control efficacy; for mortality at 10 ppm: sprayed at 10 ppm; for mortality at 50 ppm: sprayed at 50 ppm
Experimental: For evaluating control of potato leafhopper (Empoasca fabae) through contact and/or systemic means, the test unit consisted of a small open container with a 5-6-day-old Soleil bean plant (primary leaves emerged) inside. White sand was added to the top of the soil and one of the primary leaves was excised prior to application.
Test compounds were formulated and sprayed at 50 ppm and/or 10 ppm, and the tests were replicated three times as described for Test A. After spraying, the test units were allowed to dry for 1 h before they were post-infested with 5 potato leafhoppers (18-21-day-old adults). A black, screened cap was placed on the top of each test unit, and the test units were held for 6 days in a growth chamber at 24° C. and 70% relative humidity. Each test unit was then visually assessed for insect mortality.

[3] = system: cotton melon aphid (Aphis gossypii); assay: Test D: control of cotton melon aphid on cotton plant, contact and/or systemic; details: for mortality at 50 ppm: sprayed at 50 ppm
Text: For evaluating control of cotton melon aphid (Aphis gossypii) through contact and/or systemic means, the test unit consisted of a small open container with a 6-7-day-old cotton plant inside. This was pre-infested with 30-40 insects on a piece of leaf according to the cut-leaf method described for Test C, and the soil of the test unit was covered with a layer of sand.
Test compounds were formulated and sprayed at 50 ppm and/or 10 ppm as described for Test C. The applications were replicated three times. After spraying, the test units were maintained in a growth chamber and then visually rated as described for Test C.

[4] = system: corn planthopper (Peregrinus maidis); assay: whole plant or invertebrate; details: 144 h, 6 days, maize plant, very good to excellent levels of control efficacy; for mortality at 10 ppm: sprayed at 10 ppm; for mortality at 50 ppm: sprayed at 50 ppm
Experimental: For evaluating control of corn planthopper (Peregrinus maidis) through contact and/or systemic means, the test unit consisted of a small open container with a 3-4-day-old maize plant (spike) inside. White sand was added to the top of the soil prior to application. Test compounds were formulated and sprayed at 50 ppm and/or 10 ppm, and replicated three times as described for Test A. After spraying, the test units were allowed to dry for 1 h before they were post-infested with ˜15-20 nymphs (18 to 21 day old) by sprinkling them onto the sand with a salt shaker. A black, screened cap was placed on the top of each test unit, and the test units were held for 6 days in a growth chamber at 22-24° C. and 50-70% relative humidity. Each test unit was then visually assessed for insect mortality.

CCn1ccn2c(=O)c(-c3ccccc3)c([O-])[n+](Cc3cnc(Cl)s3)c12 [Compound 333]
≥ 80%: mortality at 10 ppm ([1]; sprayed at 10 ppm) | mortality at 50 ppm [1] | mortality at 10 ppm [2] | mortality at 50 ppm [2] | mortality at 50 ppm [3] | mortality at 10 ppm [4] | mortality at 50 ppm [4]

O=c1c(-c2ccccc2)c([O-])[n+](Cc2cnc(Cl)s2)c2c3ccsc3ccn12 [Compound 356]
≥ 80%: mortality at 50 ppm [2]

O=c1c(-c2ccccc2F)c([O-])[n+](Cc2cnc(Cl)s2)c2c3ccsc3ccn12 [Compound 357]
≥ 80%: mortality at 50 ppm [1] | mortality at 10 ppm [2] | mortality at 50 ppm [2]

CCn1ccn2c(=O)c(-c3cccc(C(F)(F)F)c3)c([O-])[n+](Cc3cnc(Cl)s3)c12 [Compound 340]
≥ 80%: mortality at 50 ppm [1] | mortality at 50 ppm [2] | mortality at 10 ppm ([3]; sprayed at 10 ppm) | mortality at 50 ppm [3] | mortality at 10 ppm [4] | mortality at 50 ppm [4]
